These results are taken from US9061054B2, “ErbB-2 receptor targeting peptide” (The Curators of The University of Missouri, priority 2002, dated 2015).

Numbered stars: 1 amine (or outer) side, 2 acyl side, 3 side chain; on linkers, the order of the positions; unused ones are H or OH. Bridge positions count the residues as written; N and C are the ends. Square brackets hold non-standard residues; d marks the D form. Ends that are not written are not given here. Peptide text beside a SMILES is read from it. I, II: the chains in the order shown. Actinocin(9to1) = Cc1c2oc3c(C)ccc(C(=O)[*:1])c3nc-2c(C(=O)[*:2])c(N)c1=O; NMeV = CN[C@H](C(=O)O)C(C)C; Sar = CNCC(=O)O

For data set [1] the following is noted: cited from earlier work.
Data set [2] concerns BSA, bovine asialofetuin, and human IgG. Briefly: Immunoblot analysis, control proteins. The data set is classed as binding. The settings on record: 6.25-50 ng on nitrocellulose, biotinylated peptide. The text has this: Binding activity of p6.1 peptide.
(A western blot detects proteins with antibodies after separation by electrophoresis.)

The target in data set [3] is T1, ErbB-2-ECD (Homo sapiens, UniProt P04626). The data set can be described thus: ELISA, immobilized ErbB-2-ECD. (In general: In an ELISA, binding on a coated surface is turned into a signal by an enzyme label.)
Procedure: ELISA. […] Wells were subsequently incubated with biotinylated peptide added to the wells by serial dilutions (1:2) at RT for 2 hr. […] The pNPP reaction was stopped with 3M NaOH. Optical density was measured at 405 nm in a microplate reader. All assays were performed at least three times in triplicate wells. Values are reported as an average of absorbence ±SD.
In data set [4] the target is T1, ErbB-2-ECD. Briefly: Affinity selection of phage display library. The class given is binding. The arrangement: Purification and characterization of the recombinant extracellular domain of ErbB-2; made in house. Conditions: 100 clones sequenced after four rounds of affinity selection; F3-6 library. The method, then: Affinity Selection. […] Biotinylated antigen was incubated with streptavidin coated plates for 2 hours at 4° C. In first and second round of selection 10 μg of biotinylated antigen per plate was added, in third round amount of antigen was decreased to 1 μg, and for fourth round of selection 0.1 μg of antigen was used. Unoccupied biotin-binding sites were blocked with 0.1 mM biotin. Phage was incubated with antigen for 4 hrs at RT. Plates were washed 10 times with TPBS to remove unbound phage. Bound phage was eluted with elution buffer (0.1 M HCl, pH is adjusted to 2.2 with glycine, 1 mg/ml BSA, 0.1 mg/ml phenol red) at RT during 10 min. […] After each round, except the last, the eluate of the bound phage was propagated and used as input for the next round. Individual clones were characterized by DNA sequencing after the fourth round of selection.
A random 6-amino acid peptide bacteriophage display library was affinity selected against the ErbB-2-ECD to identify novel peptide-ligands.

Data set [5] addresses T2, ErbB-1 receptor from human carcinoma A431 cells (Homo sapiens, UniProt P00533).
T2 construct: ErbB-1 receptor from human carcinoma A431 cells; purchased Sigma #E-2645; host or cells: A431 human carcinoma cells (endogenous receptor, isolated by the vendor)
The data set can be described thus: ELISA, immobilized ErbB-1. The settings on record: 100 ng protein per well; biotinylated peptide in 1:2 serial dilutions; OD 405 nm. The class given is binding.

A further data set concerns the target T3, soluble ErbB-2-ECD (Homo sapiens, UniProt P04626).
T3 construct: Purification and characterization of the recombinant extracellular domain of ErbB-2; made in house
Briefly: Fluorescence quenching titration of ErbB-2-ECD. The data set is classed as binding. Conditions: saturation conditions; excited at 300 nm, monitored at 350 nm. The method, then:
Fluorescence assay. The fluorescence titration studies were carved out using a SLM Aminco spectrofluorometer interfaced to a DEL 433/L PC running SLM Aminco 8100 series 2 software. The titrations were performed at 25° C. with varying amounts of peptide added to a fixed ErbB-2-ECD concentration (200-600 nM) in 2 ml of phosphate buffered saline (pH=7.4). Each measurement was collected for 5-20 sec after 1-2 min pre-equilibration. The excitation shutter remained closed during pre-equilibration of the sample and was opened only during data acquisition in order to minimize photobleaching of the sample. The fluorescence measurements were corrected for dilutions and photobleaching of ErbB-2-ECD. Values reported are an average of three independent measurements. […]
Fluorescence quenching studies were performed in order to evaluate the equilibrium dissociation constant of p6.1 to the soluble Erb-2-ECD. Intrinsic tryptophan fluorescence of the protein was monitored as a function of peptide concentration. Since p6.1 peptide contains a tyrosine residue, samples were excited at 300 nm and monitored at 350 nm to minimize the influence of tyrosine emission on tryptophan fluorescence. […] Theoretical curves were generated for the percentage of fluorescence quenching as a function of total peptide concentration (FIG. 2C).

Data set [6] has as its target T1, ErbB-2-ECD. The settings on record: 6.25-50 ng protein on nitrocellulose; biotinylated peptide, 2 hrs RT.
Procedure: Immunoblot analysis of binding activity of the p6.1 peptide. […] After washing three times with PBS, the membrane was incubated with 100 μg biotinylated peptide for 2 hrs at RT.
Binding activity of p6.1 peptide. The binding specificity of synthetic p6.1 peptide to recombinant ErbB-2-ECD was examined by immunoblot and ELISA procedures. Immunoblot analysis was performed to compare the binding activity of the p6.1 peptide to ErbB-2-ECD and several other non-ErbB-2 related proteins. Purified recombinant ErbB-2-ECD as well as BSA, bovine asialofetuin, and human IgG were spotted on a nitrocellulose membrane at various amounts and exposed to the biotinylated p6.1 peptide.
For data set [7] the following is noted: cited from earlier work; for plasma protein binding: in vivo.
Data set [8] has as its system DU-145 human prostate carcinoma cells. Briefly: Direct cell binding assay, DU-145. The data set is classed as cell-based. The settings on record: fixed, non-permeabilized cells; biotinylated peptide 100 μM; antibody 1:100. The method, then:
(§1) Cell Binding Assay. […] When cultures reached approximately 60-70% confluence, the cells were briefly washed with PBS, fixed with 4% formaldehyde solution in PBS for 30 min but not permeabilized, and preblocked for 1 hr with 2% bovine serum albumin (BSA) solution in PBS at 37° C. The cultivation chambers were removed and cells were incubated for 2 hr with solution of Neu (9G6) anti-ErbB-2 mouse monoclonal antibody (Santa Cruz Biotechnology) diluted 1:100 and biotinylated peptide (100 μM) in 2% solution BSA in PBS. The slides were washed three times with PBS followed by 1 hr incubation with Lissamine Rhodamineconjugated donkey anti-mouse IgG (Jackson ImmunoResearch Laboratories) and streptavidin-AMCA-S conjugate (Molecular Probes) in 2% BSA in PBS. After additional washes with PBS, the slides were mounted and analyzed by fluorescent microscopy using Rhodamine and UVA filter sets.
(§2) Direct Cell Binding Assay. The ability of the p6.1 to recognize cultured human cancer cells expressing native conformation of the ErbB-2 was examined.

In data set [9] the test system is T-24 human bladder carcinoma cells. Briefly: Direct cell binding assay, T-24 (negative control). The data set is classed as cell-based. Conditions: biotinylated peptide 100 μM, antibody 1:100. The method, then:
Cell Binding Assay. DU-145 (human prostate adenocarcinoma), MDA-MB-435 (human breast carcinoma), and T-24 (human bladder carcinoma) cells were grown directly on the same microscope slide using a 4 well Lab-Tek II chamber slide system (Nalge Nunc). When cultures reached approximately 60-70% confluence, the cells were briefly washed with PBS, fixed with 4% formaldehyde solution in PBS for 30 min but not permeabilized, and preblocked for 1 hr with 2% bovine serum albumin (BSA) solution in PBS at 37° C. The cultivation chambers were removed and cells were incubated for 2 hr with solution of Neu (9G6) anti-ErbB-2 mouse monoclonal antibody (Santa Cruz Biotechnology) diluted 1:100 and biotinylated peptide (100 μM) in 2% solution BSA in PBS. The slides were washed three times with PBS followed by 1 hr incubation with Lissamine Rhodamineconjugated donkey anti-mouse IgG (Jackson ImmunoResearch Laboratories) and streptavidin-AMCA-S conjugate (Molecular Probes) in 2% BSA in PBS. After additional washes with PBS, the slides were mounted and analyzed by fluorescent microscopy using Rhodamine and UVA filter sets.
Direct Cell Binding Assay. The ability of the p6.1 to recognize cultured human cancer cells expressing native conformation of the ErbB-2 was examined. High levels of ErbB-2 expression on DU-145 human prostate carcinoma cells has been reported previously (Zhau et al., 1992). […]

Data set [10] relates to MDA-MB-435 human breast carcinoma cells. The data set can be described thus: Direct cell binding assay, MDA-MB-435. The class given is cell-based. Conditions: fixed, non-permeabilized cells; biotinylated peptide 100 μM; antibody 1:100. The method, then: as §1, §2
For data set [11] the following is noted: oral radioactive lomustine, about 30 mg/m^2 to 100 mg/m^2; cited from earlier work.
In the next data set the test system is multiple myeloma. Conditions: oral administration; cited from earlier work.
The conditions of data set [12]: in vivo; cited from earlier work.

Consider `O=NN(CCCl)C(=O)NCCCl` [Carmustine, 1,3 bis(2-chloroethyl)-1-nitrosourea], for which the “solubility in water” value in data set [1] is on record as “poorly soluble”.
Take KCCYSL [p6.1]: the “reaction with control proteins (immunoblot)” value in [2] was “did not react”. On ErbB-2-ECD [3] (100 ng protein per well, biotinylated peptide in 1:2 serial dilutions, OD 405 nm), the “binding activity to ErbB-2-ECD (ELISA)” value is reported as “significant dose dependent binding activity”. Moreover, at ErbB-2-ECD [3] (experimental ELISA data), the “competition with Neu (9G6) antibody for the same binding site on the extracellular domain” value is “do not compete”. In addition, on ErbB-2-ECD [4], the “% Of Clones” value was determined as 75%. Further, the “binding activity to ErbB-1 protein (ELISA)” value in data set [5] was “significant dose dependent binding activity”. On soluble ErbB-2-ECD, the “maximum quenching of tryptophanyl fluorescence” value was 20%. Also, the “binding to immobilized ErbB-2-ECD (immunoblot)” value at ErbB-2-ECD [6] was “bound only ErbB-2”.
For the compound `CC[C@]1(O)C[C@H]2CN(CCc3c([nH]c4ccccc34)[C@@](C(=O)OC)(c3cc4c(cc3OC)N(C=O)[C@H]3[C@@](O)(C(=O)OC)[C@H](OC(C)=O)[C@]5(CC)C=CCN6CC[C@]43[C@@H]65)C2)C1` [vincristine], in [7], the plasma protein binding entry was “bind to plasma proteins” and the “absorption after oral administration” value is “Unpredictable absorption”.
For “biotinylated p6.1: biotinylated analog of the p6.1 peptide KCCYSL, chemically synthesized (cysteine pairing not given here; also: biotinylated, place not given here)”, the “binding to DU-145 cells (fluorescent microscopy)” value in data set [8] is recorded as “bound”. Moreover, the “binding to T-24 cells (fluorescent microscopy)” value in data set [9] is given as “Neither the Neu (9G6) anti-ErbB-2 antibody, nor the biotinylated p6.1 bound”. The “binding to MDA-MB-435 cells (fluorescent microscopy)” value in data set [10] is “bound”.
Consider `O=NN(CCCl)C(=O)NC1CCCCC1` [Lomustine, 1-(2-chloro-ethyl)-3-cyclohexyl-1 nitrosourea], for which the “radioactivity excreted as degradation products within 24 hours” value in [11] is on record as “about half”.
Turning to `N[C@@H](Cc1ccc(N(CCCl)CCCl)cc1)C(=O)O` [Melphalan], the “patients with multiple myeloma showing a favorable response” value with multiple myeloma is listed as “one third to one half”.
On to WYSWLL [p6.3], for which, in the data set with ErbB-2-ECD [4], the “% Of Clones” value is given as 10%.
As for `Cc1c2oc3c(C)ccc(C(=O)N[C@@H]4C(=O)N[C@H](C(C)C)C(=O)N5CCC[C@H]5C(=O)N(C)CC(=O)N(C)[C@@H](C(C)C)C(=O)O[C@@H]4C)c3nc-2c(C(=O)N[C@@H]2C(=O)N[C@H](C(C)C)C(=O)N3CCC[C@H]3C(=O)N(C)CC(=O)N(C)[C@@H](C(C)C)C(=O)O[C@@H]2C)c(N)c1=O` [Actinomycin D] (I: T[dV]P[Sar][NMeV] / II: T[dV]P[Sar][NMeV]; ester I:1-I:C, II:1-II:C; linker I:N-II:N via Actinocin(9to1)), in data set [12], the “passage of the blood-brain barrier” value is recorded as “does not pass”.
`CC[C@]1(O)C[C@@H]2CN(CCc3c([nH]c4ccccc34)[C@@](C(=O)OC)(c3cc4c(cc3OC)N(C)[C@H]3[C@@](O)(C(=O)OC)[C@H](OC(C)=O)[C@]5(CC)C=CCN6CC[C@]43[C@@H]65)C2)C1` [vinblastine]: in data set [7], the plasma protein binding result is “bind to plasma proteins” and the “absorption after oral administration” value is recorded as “Unpredictable absorption”.
WYAWML [p6.2]: the “% Of Clones” value with ErbB-2-ECD [4] turned out to be 8%.
